For test [1], the system named is Sprague-Dawley male rats. In words: Place conditioning to 10 mg/kg cocaine at P60 after juvenile drug exposure. The format is in vivo. The note with it: for place conditioning to cocaine-associated environment (pre- vs. post-conditioning): tested at P60, 10 mg/kg cocaine. The procedure:
Juvenile Sprague-Dawley male rats were treated with MPH (2 mg/kg, i.p. twice daily), ±7-OHDPAT (0.3 mg/kg, i.p. twice daily), Naf (0.05, 0.5 and 5 mg/kg; i.p. twice daily) or VEH (i.p. twice daily) between the ages of P20 and P35 (Andersen et al., Nat. Neurosci., 5:13-14 (2002)). The MPH dose was selected on the basis of previous studies (see Andersen et al., Nat. Neurosci., 5:13-14 (2002); Bolanos et al., Biol. Psychiatry, 54:1317-1329 (2003); and Mague et al., Biol. Psychiatry, 57:120-125 (2005)), unpublished observations that we find similar behavioral effects if MPH is given i.p. or orally at this dose, and evidence that it approximates a clinically relevant dose in humans based on plasma levels (see Wargin et al., J. Pharmacol. Exp. Ther., 226:382-386 (1983); and Kuczenski, R. & Segal, D. S. J. Neurosci., 22:7264-7271 (2002)). Clinically therapeutic doses of MPH yield plasma levels between 8 and 40 ng/mL (Swanson et al., Behay. Brain Res., 130:73-78 (2002); Teicher et al., Ann. N. Y. Acad. Sci., 1071:313-323 (2006)), with 0.5 mg/kg i.p., achieving plasma levels of 36 ng/mL within 5 min in rats (Berridge et al., Biol. Psychiatry, 60:1111-1120 (2006)). Doses for juvenile exposure to ±7-OHDPAT are based on Neisewander et al., Neuropsychopharmacology, 29:1479-1487 (2004), and cortical microinjections of 10 µg/side were derived from Boulay et al. Prog. Neuropsychopharmacol. Biol. Psychiatry, 24:39-49 (2000). Naf doses below 1 mg/kg have negligible D2 receptor occupancy (Sautel et al., J. Pharmacol. Exp. Ther., 275:1239-1246 (1995)) and are behaviorally effective (Richtand et al., Brain Res., 867:239-242 (2000)). Subjects were weighed daily at 09.00 h and injected with their assigned drug; the second injection was administered 4 h later at 13.00 h. This regimen is designed to match the twice-daily dosing used by children, taking into account the higher metabolic rates of rats (Wargin et al., J. Pharmacol. Exp. Ther., 226:382-386 (1983)). After the second drug administration on P35, the rats received no further treatments until behavioral testing at P60.
Rats treated between P20 and P35 with either Naf (0, 0.05, 0.5 or 5.0 mg/kg; n=7-9), ±7-OHDPAT (0.3 mg/kg; n=9), MPH (2 mg/kg; n=9), or a combination of 2 mg/kg MPH and 0.05 mg/kg Naf (MPH/Naf; n=8) were tested at P60 for place conditioning to 10 mg/kg cocaine. According to standard laboratory methods (Andersen et al., Nat. Neurosci., 5:13-14 (2002); Carlezon, Methods Mol. Med., 84:243-249 (2003)), unbiased place conditioning chambers consisted of two large (24×18×33) side compartments separated by a small (12×18×33 cm) middle compartment. Screening was conducted for 30 min on Day 1. Rats were placed in the middle compartment and allowed to freely explore the apparatus. […] Two days of conditioning (with two sessions per day) occurred on Days 2 and 3 for 60 min (Andersen et al., Nat. Neurosci., 5:13-14 (2002); Carlezon, Methods Mol. Med., 84:243-249 (2003)). During the conditioning sessions, rats received a 1 mL/kg i.p. injection of VEH in the morning (09.00 h) and confined to one side. The rats were then returned to the home cage. Four hours later, rats received 10 mg/kg cocaine and confined to the other side. Sides differed in floor texture, wall colors and lighting, and assignments were counterbalanced. On Day 4, rats were permitted to freely explore the entire apparatus for 30 min in a drug-free state.

Test [2] concerns D2 receptor. The note with it: Naf doses below 1 mg/kg; cited from earlier work.
Test [3] deals with Sprague-Dawley male rats. Put plainly: Locomotor activity at 60 days old after juvenile ±7-OHDPAT exposure. It is filed as in vivo. The settings on record: juvenile ±7-OHDPAT 0.3 mg/kg P20-P35, vs VEH. The procedure: FIG. 6. Locomotor activity in response to a 10 mg/kg challenge with cocaine on the second day of cocaine conditioning in VEH- and ±7-OHDPAT-treated subjects (n=7-8 animals per group). *P<0.05 comparing the 10 mg/kg cocaine groups.
Juvenile Sprague-Dawley male rats were treated with MPH (2 mg/kg, i.p. twice daily), ±7-OHDPAT (0.3 mg/kg, i.p. twice daily), Naf (0.05, 0.5 and 5 mg/kg; i.p. twice daily) or VEH (i.p. twice daily) between the ages of P20 and P35 (Andersen et al., Nat. Neurosci., 5:13-14 (2002)). […]
To further investigate the functional role of the D3 receptor in juvenile psychostimulant treatment, animals were pre-pubertally treated with the D3-preferring agonist ±7-OHDPAT, the D3 antagonist Naf or a MPH/Naf combination. […] Next, juvenile manipulations of the D3 receptor on place conditioning were assessed and compared with each other. […]

The subject of test [4] is Sprague-Dawley male rats. Put plainly: Place conditioning to 10 mg/kg cocaine at P60 after juvenile drug exposure. The format is in vivo. The settings on record: 10 µg/side into MPFCx during conditioning.
The subject of test [5] is mature and immature animals. The note with it: cited from earlier work.

Entries after “also recorded” stand apart in the source; their conditions may differ.

As to `CCCCN1CCCC1CNC(=O)c1cc(C#N)c2ccccc2c1OC` (stereo not shown) [Naf, Nafadotride], the entries for the “place conditioning to cocaine-associated environment (pre- vs. post-conditioning)” value in test [1] (juvenile Naf 0.05 mg/kg i.p. twice daily P20-P35), in test [1] (juvenile Naf 0.5 mg/kg i.p. twice daily P20-P35) and in test [1] (juvenile Naf 5.0 mg/kg i.p. twice daily P20-P35) were “significant preference”, “significant preference” and “did not form such a preference”, respectively. For the same compound, in test [2], the D2 receptor occupancy result was “negligible”.

With `CCCN(CCC)C1CCc2ccc(O)cc2C1` (racemic) [±7-OHDPAT, ±7-hydroxy-N,N-di-n-propyl-2-aminotetralin], in test [1] (juvenile exposure P20-P35: MPH 2 mg/kg, ±7-OHDPAT 0.3 mg/kg, or MPH 2 mg/kg + Naf 0.05 mg/kg, tested at P60), the “place conditioning to 10 mg/kg cocaine associated environment (pre- vs. post-conditioning)” value was “Place aversion; also recorded: aversion to the cocaine-associated environment”. Besides, the baseline locomotor activity entry in test [3] (60 days old, P>0.9) is “did not differ from VEH control animals”. Moreover, the “locomotor response to 10 mg/kg cocaine challenge” value in test [3] (second day of cocaine conditioning, P<0.05) is on record as “significantly reduced”. In addition, the “place conditioning to cocaine after ±7-OHDPAT microinjection into the MPFCx” value was “reversing the aversion to cocaine; also recorded: produced a place preference to cocaine” in test [4] (MPH-exposed subjects); “significant preference for cocaine-associated environments” in test [4] (MPH-exposed subjects, listed as ±7 OHDPAT); “no greater effect” in test [4] (VEH-exposed subjects); “significant preference for cocaine-associated environments” in test [4] (VEH-exposed subjects, listed as ±7 OHDPAT). The locomotor activity result in test [5] was “inhibit locomotor activity”.

As to `CCCN1CCO[C@@H]2c3cc(O)ccc3OC[C@H]21` [PD 128907], in test [5], the locomotor activity result is “inhibit locomotor activity”.

The record behind these values is US20110224256A1, “T[…] THE TREATMENT OF PSYCHIATRIC DISORDERS” (priority 2008, published 2011).
